Patent publication US20260274832A1, “COMPOUNDS AND THEIR USE IN TREATING CANCER” (ASTRAZENECA AB, priority 2023, published 2026)

How the values were obtained:
[1] = molecular target: T1, AR (AR-full length) in LNCaP cells (Homo sapiens, UniProt P10275, T878A); experiment: LNCaP Androgen Receptor Imaging Assay (immunofluorescence of endogenous nuclear AR); type: cell-based; conditions: 24 h incubation; for DC50: concentration giving 50% of maximum degradation of AR per curve fit, single experiment or average of two or more; for Dmax: LNCaP; for Dmax / LNCaP AR Degradation Dmax: maximum degradation observed, normalized as % of positive control (prior art AR PROTAC at 3 μM)
T1 construct: the prostate cancer cell line LNCaP (expressing AR-full length); endogenous in cells; host or cells: LNCaP
Description: This cell-based imaging assay uses immuno-fluorescence to measure endogenous nuclear AR staining in the prostate cancer cell line LNCaP (expressing AR-full length). The purpose of the assay is to identify compounds that regulate AR protein level according to the protocol laid out in the steps below.
(§1) All work was performed in a sterile tissue culture hood up to the point of cell fixation. LNCaP cells were cultured at 6-8×10^6 per T175 flask and split every 3-4 days. Medium: RPMI (R7638, VWR Sigma) containing 10% FCS and 1% glutamine. Cells were plated in black wall transparent bottom plates at a density of 12,000 cells (Cedex™ Cell counter, Beckmann & Coulter), 40 μL per well, using a Multidrop (ThermoFisher).
(§2) Cells were dosed with test compound diluted in DMSO using an Echo 555/655™ (Labcyte) and the final concentration of DMSO in the well was 0.3%. A neutral control (DMSO) and a positive AR degrader control at 3 μM (a prior art AR PROTAC) were included. The Echo uses acoustic technology to perform direct microplate-to-microplate transfers of DMSO compound solutions to assay plates. The system can be programmed to transfer volumes as low as 2.5 nL in multiple increments between microplates and in so doing generates a serial dilution of compound in the assay plate which is then back-filled to normalise the DMSO concentration across the dilution range. Compounds were dispensed as a 12 point dose response with indicated concentrations. The plates were incubated at 37° C./5% CO2 for 24 h and then fixed and stained as below. 40 μL of 8% paraformaldehyde solution (v/v) in phosphate buffered saline (PBS) was added on top of the media already in the well using a Multidrop to fix plates giving a final concentration of 4% PFA (v/v) for 20-30 minutes (keep in fume hood to minimise PFA exposure). After 20-30 mins, the plates were washed with 3×PBS using a BioTek washer in a fume hood. A shake out of remaining volume in the well was performed to ensure best removal of remaining PBS. At this plates could be stored in PBS after washing for at least 3 days at 4° C., if so, PBS was removed by the BioTek before continuing with the next step.
(§3) The cells were incubated with a Mouse monoclonal Anti-AR antibody AR441 (DAKO M3562) (1:1000), diluted in modified blocking buffer (PBS+1% BSA+0.1% TritonX); 15 μL/well for 2 h at RT. The plates were then washed with 3×PBS using a BioTek washer. A shake out of remaining volume in the well was performed to ensure best removal of remaining PBS. Cells were then incubated with Goat anti-mouse secondary antibody 488 (Invitrogen A11001) (1:500) and nuclear stain, DRAQ5 (Abcam Ab108410) (1:2000) diluted in modified blocking buffer for 45 mins at room temperature 15 μL/well. Plates are then washed with 3×PBS using a BioTek washer, without final aspiration, and sealed with black plate seals. Plates could be stored after staining for three days at 4° C. before read if required.
(§4) Plates are read using a Cellomics Cellinsight to measure the Androgen Receptor level in each well. The data is exported into Genedata to perform curve fitting analysis. All data are normalized as % of positive control and the BellFit method automatically determines the correct fit method based on the presence of hook effect, choosing the BellFit when there is a hook and HillFit when there is no hook. Down-regulation of AR is expressed as a DC50 value and determined by calculation of the concentration of compound that is required to give 50% of maximum degradation of AR as per the curve fit for that compound. The maximum degradation observed for each compound is expressed as Dmax. The AR degradation data for compounds is shown in the table below and may be a result from a single experiment or an average of two or more experiments.

[2] = molecular target: T2, AR (L702H) in LNCaP cells (Homo sapiens, UniProt P10275, L702H/T878A); experiment: LNCaP Androgen Receptor L702H Imaging Assay (LNCaP cells engineered by CRISPR/Cas9); type: cell-based; conditions: LNCaP cells with AR L702H mutation, 24 h incubation; for DC50: concentration giving 50% of maximum degradation of AR (L702H) per curve fit; for Dmax: LNCaP; for Dmax / LNCaP AR (L702H) Degradation Dmax: maximum degradation observed, normalized as % of positive control
T2 construct: engineered to introduce the mutation L702H into the AR gene using CRISPR/Cas9; endogenous in cells; host or cells: LNCaP cells edited by CRISPR/Cas9 at the AR gene
Description: as §1, §2, §3, §4
At this stage, anti-androgen therapy is largely ineffective due to AR amplification, overexpression or point mutation. One of the point mutations observed in patient populations is L702H in the AR Ligand Binding Domain. LNCAP cells have been engineered to introduce the mutation L702H into the AR gene using CRISPR/Cas9. The previously described imaging-based AR assay will monitor nuclear AR (L702H) levels in these cells to identify compounds that regulate AR (L702H). […]

T2 sequence (P10275 whole entry L702H/T878A): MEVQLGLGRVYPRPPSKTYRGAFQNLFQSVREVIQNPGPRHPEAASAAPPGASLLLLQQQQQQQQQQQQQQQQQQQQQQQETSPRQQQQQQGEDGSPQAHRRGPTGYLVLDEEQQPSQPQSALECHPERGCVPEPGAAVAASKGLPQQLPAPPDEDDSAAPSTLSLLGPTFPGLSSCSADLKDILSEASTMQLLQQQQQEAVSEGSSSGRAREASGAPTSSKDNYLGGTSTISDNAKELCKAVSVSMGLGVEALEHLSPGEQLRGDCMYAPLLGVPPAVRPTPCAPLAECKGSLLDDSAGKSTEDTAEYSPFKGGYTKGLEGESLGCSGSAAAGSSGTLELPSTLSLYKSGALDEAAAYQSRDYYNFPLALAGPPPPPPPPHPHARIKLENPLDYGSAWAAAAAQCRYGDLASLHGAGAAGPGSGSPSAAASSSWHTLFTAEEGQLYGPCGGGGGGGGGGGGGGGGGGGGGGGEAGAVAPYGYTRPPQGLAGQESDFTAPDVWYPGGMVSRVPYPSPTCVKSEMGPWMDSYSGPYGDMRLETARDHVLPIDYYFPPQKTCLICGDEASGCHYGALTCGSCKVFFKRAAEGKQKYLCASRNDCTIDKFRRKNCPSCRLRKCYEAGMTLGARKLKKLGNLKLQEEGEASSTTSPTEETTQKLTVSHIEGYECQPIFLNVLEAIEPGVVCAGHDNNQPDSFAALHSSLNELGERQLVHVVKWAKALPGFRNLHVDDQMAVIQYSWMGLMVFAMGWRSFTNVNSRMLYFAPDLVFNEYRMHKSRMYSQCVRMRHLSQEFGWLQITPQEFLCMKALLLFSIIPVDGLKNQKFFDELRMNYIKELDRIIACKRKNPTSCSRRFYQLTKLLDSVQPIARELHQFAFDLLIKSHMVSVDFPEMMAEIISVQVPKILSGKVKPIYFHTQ
T2 sequence (Q96SW2 whole entry partner): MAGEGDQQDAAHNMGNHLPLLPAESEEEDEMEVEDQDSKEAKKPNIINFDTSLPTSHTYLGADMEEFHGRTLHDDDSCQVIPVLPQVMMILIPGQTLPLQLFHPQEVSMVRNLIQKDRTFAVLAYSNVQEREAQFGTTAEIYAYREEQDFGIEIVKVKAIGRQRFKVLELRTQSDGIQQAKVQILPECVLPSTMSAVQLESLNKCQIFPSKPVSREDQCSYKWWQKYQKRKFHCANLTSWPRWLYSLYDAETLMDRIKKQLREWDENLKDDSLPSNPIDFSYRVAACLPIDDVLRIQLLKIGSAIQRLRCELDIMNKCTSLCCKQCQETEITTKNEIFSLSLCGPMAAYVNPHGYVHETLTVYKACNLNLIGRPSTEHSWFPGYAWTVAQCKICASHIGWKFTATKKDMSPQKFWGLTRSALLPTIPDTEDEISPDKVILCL
T1 sequence (P10275 whole entry T878A): as the sequence (P10275 whole entry L702H/T878A) above, with H702L counted along it
T1 sequence (Q96SW2 whole entry partner): as the sequence (Q96SW2 whole entry partner) above

SMILES	DC50 [1] [nM]	Dmax [1] [%]	DC50 [2] [nM]	Dmax [2] [%]	LNCaP AR Degradation Dmax [1] [%]	LNCaP AR (L702H) Degradation Dmax [2] [%]
N#Cc1c[nH]c2c(N3CCC(c4ccc(N5CCC(CN6CCN(c7ccc8c(c7)CN(C7CCC(=O)NC7=O)C8=O)CC6)CC5)cc4)CC3)ccc(F)c12 (single isomer, unassigned) [Example 3, 7-(4-{4-[4-({4-[2-(2,6-Dioxopiperidin-3-yl)-1-oxo-2,3-dihydro-1H-isoindol-5-yl]piperazin-1-yl}methyl)piperidin-1-yl]phenyl}piperidin-1-yl)-4-fluoro-1H-indole-3-carbonitrile]	18	85	17	99		
N#Cc1c[nH]c2c(N3CCC(c4ccc(N5CCC(CN6CCN(c7ccc8c(c7)CN(C7CCC(=O)NC7=O)C8=O)CC6)CC5)cc4)CC3)ccc(F)c12 (single isomer, unassigned) [Example 4, 7-(4-{4-[4-({4-[2-(2,6-Dioxopiperidin-3-yl)-1-oxo-2,3-dihydro-1H-isoindol-5-yl]piperazin-1-yl}methyl)piperidin-1-yl]phenyl}piperidin-1-yl)-4-fluoro-1H-indole-3-carbonitrile]	6		5		96	106
COc1cc(N2CCN(CC3CCN(c4ccc(C5CCN(c6ccc(Cl)c7c(C#N)c[nH]c67)CC5)cc4)CC3)CC2)cc2c1C(=O)N(C1CCC(=O)NC1=O)C2 (single isomer, unassigned) [Example 16, 4-Chloro-7-[4-(4-{4-[(4-{2-[(3R*)-2,6-dioxopiperidin-3-yl]-7-methoxy-1-oxo-2,3-dihydro-1H-isoindol-5-yl}piperazin-1-yl)methyl]piperidin-1-yl}phenyl)piperidin-1-yl]-1H-indole-3-carbonitrile]	12		24	84	77	
COc1cc(N2CCN(CC3CCN(c4ccc(C5CCN(c6ccc(Cl)c7c(C#N)c[nH]c67)CC5)cc4)CC3)CC2)cc2c1C(=O)N(C1CCC(=O)NC1=O)C2 (single isomer, unassigned) [Example 17, 4-Chloro-7-[4-(4-{4-[(4-{2-[(3S*)-2,6-dioxopiperidin-3-yl]-7-methoxy-1-oxo-2,3-dihydro-1H-isoindol-5-yl}piperazin-1-yl)methyl]piperidin-1-yl}phenyl)piperidin-1-yl]-1H-indole-3-carbonitrile]	3		4		100	102
N#Cc1c[nH]c2c(N3CCC(c4ccc(N5CCC(CN6CCN(c7ccc8c(c7)CN(C7CCC(=O)NC7=O)C8=O)CC6)CC5)cc4)CC3)ccc(Cl)c12 (single isomer, unassigned) [Example 18, 4-Chloro-7-[4-(4-{4-[(4-{2-[(3R*)-2,6-dioxopiperidin-3-yl]-1-oxo-2,3-dihydro-1H-isoindol-5-yl}piperazin-1-yl)methyl]piperidin-1-yl}phenyl)piperidin-1-yl]-1H-indole-3-carbonitrile]	14	93	18	96		
N#Cc1c[nH]c2c(N3CCC(c4ccc(N5CCC(CN6CCN(c7ccc8c(c7)CN(C7CCC(=O)NC7=O)C8=O)CC6)CC5)cc4)CC3)ccc(Cl)c12 (single isomer, unassigned) [Example 19, 4-Chloro-7-[4-(4-{4-[(4-{2-[(3S*)-2,6-dioxopiperidin-3-yl]-1-oxo-2,3-dihydro-1H-isoindol-5-yl}piperazin-1-yl)methyl]piperidin-1-yl}phenyl)piperidin-1-yl]-1H-indole-3-carbonitrile]	4		5		102	102
COc1nc(N2CCN(CC3CCN(c4ccc(C5CCN(c6ccc(Cl)c7c(C#N)c[nH]c67)CC5)cc4)CC3)CC2)cc2c1C(=O)N(C1CCC(=O)NC1=O)C2 (single isomer, unassigned) [Example 35, 4-Chloro-7-[4-(4-{4-[(4-{2-[(3R*)-2,6-dioxopiperidin-3-yl]-4-methoxy-3-oxo-2,3-dihydro-1H-pyrrolo[3,4-c]pyridin-6-yl}piperazin-1-yl)methyl]piperidin-1-yl}phenyl)piperidin-1-yl]-1H-indole-3-carbonitrile]	19	84	29	91		
COc1nc(N2CCN(CC3CCN(c4ccc(C5CCN(c6ccc(Cl)c7c(C#N)c[nH]c67)CC5)cc4)CC3)CC2)cc2c1C(=O)N(C1CCC(=O)NC1=O)C2 (single isomer, unassigned) [Example 36, 4-Chloro-7-[4-(4-{4-[(4-{2-[(3S*)-2,6-dioxopiperidin-3-yl]-4-methoxy-3-oxo-2,3-dihydro-1H-pyrrolo[3,4-c]pyridin-6-yl}piperazin-1-yl)methyl]piperidin-1-yl}phenyl)piperidin-1-yl]-1H-indole-3-carbonitrile]	5		7		102	102
COc1nc(N2CCN(CC3CCN(c4ccc([C@@H]5CCCN(c6ccc(Cl)c7c(C#N)c[nH]c67)C5)cc4)CC3)CC2)cc2c1C(=O)N(C1CCC(=O)NC1=O)C2 (single isomer, unassigned) [Example 39, 4-Chloro-7-[(3S)-3-(4-{4-[(4-{2-[(3R*)-2,6-dioxopiperidin-3-yl]-4-methoxy-3-oxo-2,3-dihydro-1H-pyrrolo[3,4-c]pyridin-6-yl}piperazin-1-yl)methyl]piperidin-1-yl}phenyl)piperidin-1-yl]-1H-indole-3-carbonitrile]	16	88	33	99		
N#Cc1c[nH]c2c(C3CCCN(c4ccc(N5CCC(CN6CCN(c7ccc8c(c7)CN(C7CCC(=O)NC7=O)C8=O)CC6)CC5)cc4)C3)ccc(Cl)c12 (single isomer, unassigned) [Example 94, 4-Chloro-7-[(3S*)-1-{4-[4-({4-[2-(2,6-dioxopiperidin-3-yl)-1-oxo-2,3-dihydro-1H-isoindol-5-yl]piperazin-1-yl}methyl)piperidin-1-yl]phenyl}piperidin-3-yl]-1H-indole-3-carbonitrile]	> 3000					
